Measurements as given in patent US8188086B2, “Specific salt, anhydrous and crystalline form of a dihydropteridione derivative” (Boehringer Ingelheim International GmbH, priority 2006, dated 2012).
Values belong to the compound of their own block, whether it stands above or below them.

Legend:
Assay type in all cases: physicochemical
[1] = Stability of hydrate / anhydrous form (humidity, ambient conditions, heating)
Description: Under standard conditions the crystalline trihydrochloride salt form of N-[trans-4-[4-(cyclopropylmethyl)-1-piperazinyl]cyclohexyl]-4-[[(7R)-7-ethyl-5,6,7,8-tetrahydro-5-methyl-8-(1-methylethyl)-6-oxo-2-pteridinyl]amino]-3-methoxy-benzamide according to the invention is present in the form of an hydrate and is obtainable after drying with a changing stoichiometry (1-3 water equivalents). The hydrate with a stoichiometry close to a trihydrate seems to be the stable hydrated form under ambient conditions and can be obtained after conditioning of the dried material. The crystal water is tightly bound.
At about 260° C. another strong endothermic peak can be observed in the DSC-diagram, indicating melting of the dehydrated form. The onset of this melting event is at about 245° C. Melting occurs, however, under decomposition, indicated by the accompanied weight loss upon melting. When performing a TG-IR coupling experiment, it can be shown that hydrochloric acid is released upon decomposition. The respective anhydrous form, obtained by heating a sample up to 140° C. is not stable.

physchem = assay: physchem
Experimental: This hydrated form of the trihydrochloride salt of the compound N-[trans-4-[4-(cyclopropylmethyl)-1-piperazinyl]cyclohexyl]-4-[[(7R)-7-ethyl-5,6,7,8-tetrahydro-5-methyl-8-(1-methylethyl)-6-oxo-2-pteridinyl]amino]-3-methoxy-benzamide of formula (I) is highly soluble (>10 mg/ml) in propylenglycol, glycofurol, Cremophor RH40 (30% aqueous solution), Poloxamer 188 (20% aqueous solution), Solutol HS 15 (20% aqueous solution) as well as HP-β-cyclodextrin (20%-, 10%-, 5%-aqueous solutions). • Solid state properties of an hydrated form of the trihydrochloride salt of N-[trans-4-[4-(cyclopropylmethyl)-1-piperazinyl]cyclohexyl]-4-[[(7R)-7-ethyl-5,6,7,8-tetrahydro-5-methyl-8-(1-methylethyl)-6-oxo-2-pteridinyl]amino]-3-methoxy-benzamide. • Appearance

[2] = Solubility in aqueous media
[3] = Solid state stability under harsh stress conditions
Description: No significant decomposition or impurities (Σ<2.4%) can be observed under the applied stress conditions.

solubility (physchem): > 10000 µg/mL
solubility (physchem; aqueous with cosolvent or surfactant or cyclodextrin): > 10000 µg/mL
solubility (physchem; organic solvent or mixture): > 10000 µg/mL
solubility ([2]; pH 2.2, aqueous buffer): > 10000 µg/mL
solubility ([2]; pH 3, aqueous buffer): 6200 µg/mL
solubility ([2]; pH 4, aqueous buffer): 7200 µg/mL
solubility ([2]; pH 5, aqueous buffer): 7200 µg/mL
solubility ([2]; pH 6, aqueous buffer): 7100 µg/mL
solubility ([2]; pH 7.4, aqueous buffer): 7800 µg/mL
solubility ([2]; simulated gastric fluid): > 10000 µg/mL
solubility ([2]; water): > 10000 µg/mL
decomposition or impurities (Σ) ([3]; 24 hours at 105° C., 72 hours at 70° C. and >90% rel. humid., or 24 hours in a Xenotester (λ=300-800 nm, 250 W·m^−2)): < 2.4%
stability in the solid state ([3]; harsh stress conditions (105° C. 24 h; 70° C./>90% rel. humid. 72 h; Xenotester 24 h)): very stable in the solid state
SMILES: CC[C@@H]1C(=O)N(C)c2cnc(Nc3ccc(C(=O)N[C@H]4CC[C@H](N5CCN(CC6CC6)CC5)CC4)cc3OC)nc2N1C(C)C.Cl [N-[trans-4-[4-(cyclopropylmethyl)-1-piperazinyl]cyclohexyl]-4-[[(7R)-7-ethyl-5,6,7,8-tetrahydro-5-methyl-8-(1-methylethyl)-6-oxo-2-pteridinyl]amino]-3-methoxy-benzamide]
stability under ambient conditions compared to the anhydrous form ([1]; ambient conditions): advantage of stability under ambient conditions
weight loss on lowering the humidity ([1]; humidity down to 10% r.h.): does not result in a significant weight loss
solubility in physiologically acceptable solvents [2]: readily soluble in physiologically acceptable solvents
pH dependent solubility profile in aqueous media ([2]; conclusion from Table I): high solubility in acidic and neutral media and strongly reduced solubility in basic media

stability of the anhydrous form ([1]; obtained by heating a sample up to 140° C.): not stable
SMILES: CC[C@@H]1C(=O)N(C)c2cnc(Nc3ccc(C(=O)N[C@H]4CC[C@H](N5CCN(CC6CC6)CC5)CC4)cc3OC)nc2N1C(C)C.Cl [anhydrous form, N-[trans-4-[4-(cyclopropylmethyl)-1-piperazinyl]cyclohexyl]-4-[[(7R)-7-ethyl-5,6,7,8-tetrahydro-5-methyl-8-(1-methylethyl)-6-oxo-2-pteridinyl]amino]-3-methoxy-benzamide]

solubility in water compared to the free base [2]: much more soluble than the free base
SMILES: CC[C@@H]1C(=O)N(C)c2cnc(Nc3ccc(C(=O)N[C@H]4CC[C@H](N5CCN(CC6CC6)CC5)CC4)cc3OC)nc2N1C(C)C.Cl [trihydrochloride salt, N-[trans-4-[4-(cyclopropylmethyl)-1-piperazinyl]cyclohexyl]-4-[[(7R)-7-ethyl-5,6,7,8-tetrahydro-5-methyl-8-(1-methylethyl)-6-oxo-2-pteridinyl]amino]-3-methoxy-benzamide]
